{
  "source": "patent US11358931B2",
  "about": "“Selective androgen receptor modulators (SARMs) and uses thereof” (priority 2007, dated 2022)",
  "key": {"[1]": {"assay": "In vitro genotoxicity assays", "description": "Compounds disclosed herein can be evaluated for efficacy and toxicity using known methods. For example, the toxicology of a particular compound, or of a subset of the compounds, sharing certain chemical moieties, may be established by determining in vitro toxicity towards a cell line, such as a bacterial or mammalian, including human, cell line. The results of such studies are often predictive of toxicity in animals, such as mammals, or more specifically, humans. Exemplary assays include bacterial reverse mutation assays (e.g., see Ames et al., Mutation Research 31: 347-364 (1975); Green et al., Mutation Research 38: 3-32 (1976); and Maron et al., Mutation Research 113: 173-215 (1983), cytological methods for detecting chemical mutagens (Evans, Chemical Mutagens, Principles and Methods for their Detection, Vol. 4 (Plenum Press, New York, N.Y. (1976))), chromosomal aberration assays (Galloway et al., Mutation Research 312(3): 241-261 (1994)), genotoxicity assays (Federal Register 61: 18198-18202 (1996) and Federal Register 62: 16026-16030 (1997)) and cytogenetic assays (Preston et al., Mutation Research 87: 143-188 (1981))."}, "[2]": {"assay": "Oral bioavailability in animal species", "details": "multiple animal species, including monkeys"}, "[3]": {"assay": "Toxicokinetics in Sprague Dawley rats (14-day oral study)", "format": "in vivo, rat", "method": "(§1) A Sprague Dawley Rat model was used to study oral toxicity and toxicokinetics. Animals were assigned to groups by a stratified randomization scheme designed to achieve similar group mean body weights and the groups were randomly assigned to a dosing to provide control of bias.\n(§2) All animals were dosed via oral gavage once daily for 14 days. The animals were evaluated for changes in clinical signs (mortality/morbidity observations, twice daily), cage side observations (general appearance and behavior), food consumption (quantitatively measured by weighing), body weights, clinical pathology indices including serum chemistry, hematology, coagulation and urinalysis, and other parameters. Blood samples were collected for toxicokinetics analysis from Groups 6-10 at various time points on Days 1 and 14 (Group 6 4 hours post dose; Groups 7-10 at 1, 4 and 12 hours or 2, 8 and 24 hours). The animals were fasted for at least 8 hours prior to blood collections for serum chemistry and urine collection. Serum chemistry parameters tested included alanine aminotransferase, total protein, aspartate aminotransferase, albumin, alkaline phosphatase, globulin, gamma-glutamyl-transferase, albumin/globulin ratio, lactate dehydrogenase, glucose, total bilirubin, cholesterol, urea nitrogen, triglycerides, creatinine, sodium, calcium, potassium, phosphorus and chloride. Hematology parameters analyzed included red blood cell count, reticulocyte count, hemoglobin concentration, red blood cell distribution width, mean corpuscular volume, mean platelet volume, mean corpuscular hemoglobin concentration, white blood cell count and differentials and mean corpuscular hemoglobin. Urinalysis parameters included color/character, ketones, specific gravity, bilirubin, pH, occult blood, protein, glucose and microscopics. Main study animals were euthanized on Day 15. At termination, a full necropsy was conducted and all tissues were collected, preserved, processes and examined microscopically from Groups 1 and 5, and target organs (liver and kidney) from Groups 2-4, by a veterinary pathologist certified by the American College of Veterinary Pathologists."}, "[4]": {"assay": "14-day oral toxicity study in Sprague Dawley rats", "format": "in vivo, rat", "details": "Sprague-Dawley, rat, in vivo; SD rats, oral gavage once daily for 14 days; read-out: No-observed-adverse-effect level (NOAEL)", "method": "as §1, §2\nControl vehicle included Peg-400 (Sigma P-3265), Tween 80 (Sigma P-8074) and PVP-K30 (polyvinyl pyrrolidone or povidone K-30, Spectrum PN P1454) at a ratio of 90:5:5, w/w/w. Appropriate amounts of Compound 102 were added to the control vehicle to produce homogeneous dosing solutions/suspensions."}},
  "data": [
    {"molecule": "N#Cc1ccc(N2CCC[C@@H]2[C@@H](O)C(F)(F)F)cc1C(F)(F)F", "note": "[Compound 102, R,R-4-(2-(1-Hydroxyl-2,2,2-trifluoroethyl)-pyrrolidinyl)-2-trifluoromethyl-benzonitrile]", "values": [
      {"measurement": "genotoxicity", "setting": "[1]", "result": "negative"},
      {"measurement": "oral bioavailability", "setting": "[2]", "result": "orally bioavailable"},
      {"measurement": "sex difference of systemic exposure", "setting": "[3]; Day 1", "result": "higher systemic exposure in females across all dose levels"},
      {"measurement": "systemic exposure at 700 mg/kg/day", "setting": "[3]; Day 1, 700 mg/kg/day", "result": "not increased, indicating that absorption was saturated"},
      {"measurement": "systemic exposure versus dose", "setting": "[3]; Day 1, male and female rats", "result": "increased with increasing dose up to 300 mg/kg/day"},
      {"measurement": "effect of repeat administration on systemic exposure", "setting": "[3]; Day 14 vs Day 1, more pronounced in high dose groups", "result": "decreased systemic exposure"},
      {"measurement": "NOAEL at 14 days", "setting": "[4]", "result": 700, "unit": "mg/kg/day"}
    ]}
  ]
}
